Assay results: PubChem BioAssay (NCI)
Values joined by “and” are separate entries in the source; they are usually repeats but may differ in a detail not shown here. Identical values can stand only once.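 Cells were grown in 96-well plates and exposed to each compound for 48 hours at five concentrations; endpoints were interpolated linearly between bracketing concentrations, or set to the highest concentration if not reached. Abbreviation: GI50, concentration required for 50% inhibition of growth. TGI: total growth inhibition.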

Legend:
Test in all cases: inhibition of tumour cell growth, NCI panel, 48 h
CAKI-1 renal = system: CAKI-1 renal
NCI-H460 lung = system: NCI-H460 lung
SNB-75 CNS = system: SNB-75 CNS
TK-10 renal = system: TK-10 renal
SK-MEL-2 melanoma = system: SK-MEL-2 melanoma
OVCAR-4 ovarian = system: OVCAR-4 ovarian
RXF 393 renal = system: RXF 393 renal
IGROV1 ovarian = system: IGROV1 ovarian
T-47D breast = system: T-47D breast
HS 578T breast = system: HS 578T breast
MDA-N = system: MDA-N

COC(=O)C1CCCC2(C1)OCCO2 (centres undefined)
TGI (CAKI-1 renal): > 100 µM
TGI (NCI-H460 lung): > 100 µM
TGI (SNB-75 CNS): > 100 µM
TGI (TK-10 renal): > 100 µM
TGI (SK-MEL-2 melanoma): > 100 µM
TGI (OVCAR-4 ovarian): > 100 µM
TGI (RXF 393 renal): > 100 µM
TGI (IGROV1 ovarian): > 100 µM

On1c(-c2ccccc2)c(-c2ccccc2N2CCCC2)c2ccccc21
TGI (CAKI-1 renal): > 100 µM
TGI (NCI-H460 lung): > 100 µM
TGI (SNB-75 CNS): > 100 µM
TGI (TK-10 renal): > 100 µM
TGI (SK-MEL-2 melanoma): > 100 µM
TGI (OVCAR-4 ovarian): > 100 µM
TGI (IGROV1 ovarian): > 100 µM

O=C(O)CN1CCNCCN(CC(=O)O)CCN(CC(=O)O)CCNCC1
TGI (CAKI-1 renal): > 100 µM
TGI (NCI-H460 lung): > 100 µM
TGI (SNB-75 CNS): > 100 µM
TGI (TK-10 renal): > 100 µM
TGI (T-47D breast): > 100 µM
TGI (HS 578T breast): > 100 µM
TGI (SK-MEL-2 melanoma): > 100 µM
TGI (MDA-N): > 100 µM
TGI (OVCAR-4 ovarian): > 100 µM
TGI (IGROV1 ovarian): > 100 µM

CSC1=N/C(=C\c2ccc(C)cc2)C(=O)N1CN1CCCCC1
TGI (SNB-75 CNS): > 100 µM
TGI (TK-10 renal): > 100 µM
TGI (HS 578T breast): > 100 µM
TGI (SK-MEL-2 melanoma): > 100 µM
TGI (MDA-N): > 100 µM
TGI (OVCAR-4 ovarian): > 100 µM
TGI (IGROV1 ovarian): > 100 µM

CNc1cc2c(c3ccccc13)C(CCl)CN2C(=O)c1cc2cc(OC)c(OC)c(OC)c2[nH]1 (centres undefined)
TGI (CAKI-1 renal): 0.00431 µM and 0.022 µM
TGI (NCI-H460 lung): 0.00226 µM
TGI (SNB-75 CNS): 0.00802 µM
TGI (T-47D breast): 0.0756 µM and 0.405 µM
TGI (HS 578T breast): 0.0379 µM
TGI (SK-MEL-2 melanoma): 0.0197 µM
TGI (MDA-N): 0.00856 µM
TGI (IGROV1 ovarian): 0.128 µM

Cc1c2n(c(=O)[nH]c1=O)C1OC(CO)C(N=[N+]=[N-])C1O2 (centres undefined)
TGI (CAKI-1 renal): > 100 µM
TGI (NCI-H460 lung): > 100 µM
TGI (SNB-75 CNS): > 100 µM
TGI (TK-10 renal): > 100 µM
TGI (SK-MEL-2 melanoma): > 100 µM
TGI (OVCAR-4 ovarian): > 100 µM
TGI (RXF 393 renal): > 100 µM
TGI (IGROV1 ovarian): > 100 µM

N#CNC(=NCc1ccccc1)N(Cc1ccccc1)Cc1ccccc1
TGI (CAKI-1 renal): 89.6 µM
TGI (NCI-H460 lung): > 31.6 µM
TGI (TK-10 renal): > 31.6 µM
TGI (T-47D breast): > 100 µM
TGI (SK-MEL-2 melanoma): 26.4 µM
TGI (MDA-N): > 100 µM
TGI (OVCAR-4 ovarian): > 31.6 µM
TGI (RXF 393 renal): > 100 µM
TGI (IGROV1 ovarian): > 31.6 µM

CCCNc1ncnc2c1ncn2C
TGI (CAKI-1 renal): > 100 µM
TGI (SNB-75 CNS): > 100 µM
TGI (TK-10 renal): > 100 µM
TGI (T-47D breast): > 100 µM
TGI (SK-MEL-2 melanoma): > 100 µM
TGI (MDA-N): > 100 µM
TGI (OVCAR-4 ovarian): > 100 µM
TGI (RXF 393 renal): > 100 µM
TGI (IGROV1 ovarian): > 100 µM

Cc1nc(C)c(C(=O)NNC(=O)C[N+](C)(C)C)cc1C(=O)NNC(=O)C[N+](C)(C)C
TGI (CAKI-1 renal): > 100 µM
TGI (NCI-H460 lung): > 100 µM
TGI (SNB-75 CNS): > 100 µM
TGI (TK-10 renal): > 100 µM
TGI (T-47D breast): > 100 µM
TGI (SK-MEL-2 melanoma): > 100 µM
TGI (MDA-N): > 100 µM
TGI (OVCAR-4 ovarian): > 100 µM
TGI (RXF 393 renal): > 100 µM
TGI (IGROV1 ovarian): > 100 µM

O=C1c2cc(-c3ccccc3)cnc2S(=O)(=O)N1c1ccc(Br)cc1
TGI (CAKI-1 renal): > 100 µM
TGI (NCI-H460 lung): 75 µM
TGI (SNB-75 CNS): 78.8 µM
TGI (TK-10 renal): > 100 µM
TGI (T-47D breast): > 100 µM
TGI (HS 578T breast): 70.6 µM
TGI (SK-MEL-2 melanoma): > 100 µM
TGI (MDA-N): > 100 µM
TGI (IGROV1 ovarian): > 100 µM

CCOC(=O)c1c(-c2ccc(O)c(OC)c2)c(C#N)c(=S)n(C2OC(CO)C(O)C(O)C2O)c1-c1ccccc1 (centres undefined)
TGI (CAKI-1 renal): > 100 µM
TGI (NCI-H460 lung): > 100 µM
TGI (HS 578T breast): > 100 µM
TGI (MDA-N): > 100 µM
TGI (OVCAR-4 ovarian): > 100 µM
TGI (RXF 393 renal): > 100 µM
TGI (IGROV1 ovarian): > 100 µM

CCCCCCCCCCCCCCCCNc1cccc2ccccc12
TGI (NCI-H460 lung): > 100 µM
TGI (SNB-75 CNS): > 100 µM
TGI (TK-10 renal): > 100 µM
TGI (RXF 393 renal): > 100 µM
TGI (IGROV1 ovarian): > 100 µM

COC(C)(C)C1(O)CC[C@@H](C)CC1=O (some centres undefined)
TGI (CAKI-1 renal): > 100 µM
TGI (NCI-H460 lung): > 100 µM
TGI (SNB-75 CNS): > 100 µM
TGI (TK-10 renal): > 100 µM
TGI (HS 578T breast): > 100 µM
TGI (MDA-N): > 100 µM
TGI (OVCAR-4 ovarian): > 100 µM
TGI (RXF 393 renal): > 100 µM
TGI (IGROV1 ovarian): > 100 µM

CC(=O)NC1C(OCc2ccccc2)OC(CO)C(O)C1OCC(=O)N[C@@H](C)C(=O)N[C@H](CCC(=O)NCCCNc1c2ccccc2nc2cccc([N+](=O)[O-])c12)C(N)=O (some centres undefined)
TGI (CAKI-1 renal): 0.334 µM
TGI (NCI-H460 lung): 0.0609 µM
TGI (SNB-75 CNS): 0.362 µM
TGI (TK-10 renal): 1.55 µM
TGI (T-47D breast): 0.25 µM
TGI (HS 578T breast): 0.675 µM
TGI (MDA-N): 0.102 µM
TGI (OVCAR-4 ovarian): 0.267 µM
TGI (IGROV1 ovarian): 0.606 µM

CCCCCCCCCCCC[S+](C)C
TGI (CAKI-1 renal): 10.3 µM
TGI (NCI-H460 lung): 33.2 µM
TGI (SNB-75 CNS): 16.6 µM
TGI (TK-10 renal): 18.3 µM
TGI (T-47D breast): 3.37 µM
TGI (SK-MEL-2 melanoma): 17.6 µM
TGI (MDA-N): 15.5 µM
TGI (OVCAR-4 ovarian): 18.8 µM
TGI (RXF 393 renal): 9.38 µM
TGI (IGROV1 ovarian): 6.16 µM

NC(=O)c1c(NC(=O)c2ccccc2)sc2c1CCC(=O)C2
GI50 (CAKI-1 renal): 637 nM
TGI (CAKI-1 renal): 3.95 µM
GI50 (NCI-H460 lung): 3.04 µM
TGI (NCI-H460 lung): > 100 µM
GI50 (SNB-75 CNS): 1230 nM
TGI (SNB-75 CNS): 6.05 µM
GI50 (TK-10 renal): 6.91 µM
TGI (TK-10 renal): > 100 µM
GI50 (HS 578T breast): 1200 nM
TGI (HS 578T breast): 6.97 µM
GI50 (SK-MEL-2 melanoma): 2400 nM
TGI (SK-MEL-2 melanoma): 7.21 µM
GI50 (OVCAR-4 ovarian): 732 nM
TGI (OVCAR-4 ovarian): 2.01 µM
GI50 (RXF 393 renal): 1170 nM
TGI (RXF 393 renal): 5.46 µM
GI50 (IGROV1 ovarian): 1010 nM
TGI (IGROV1 ovarian): 13.3 µM

COC(=O)C(=Cc1cc(OC)c(OC)c(OC)c1-c1cc2c(cc1C1(C)OCCS1)OCO2)C(=O)OC (centres undefined)
TGI (CAKI-1 renal): > 100 µM
TGI (NCI-H460 lung): > 100 µM
TGI (TK-10 renal): > 100 µM
TGI (SK-MEL-2 melanoma): 69.6 µM
TGI (RXF 393 renal): > 100 µM
TGI (IGROV1 ovarian): > 100 µM
